One experiment relates to A549. In words: Antiproliferative activity against human A549 cells assessed as cell growth inhibition after 72 hrs by MTT assay. The experiment is classed as functional. (Formazan colour is commonly taken as a measure of viable cells.)
Another experiment addresses Acetylcholinesterase (Electrophorus electricus, UniProt O42275). Nature of the experiment: Inhibition of electric eel AChE using acetylthiocholine […] as substrate for 20 mins by Ellman's method.
The subject of a further experiment is SW480. In words: Antiproliferative activity against human SW480 cells assessed as cell growth inhibition after 72 hrs by MTT assay. The experiment is classed as functional.
A further experiment has as its target Cholinesterase (Equus caballus, UniProt P81908). In words: Inhibition of equine serum BuChE using […] as substrate for 20 mins by Ellman's method.
A further experiment relates to MCF7. In words: Antiproliferative activity against human MCF7 cells assessed as cell growth inhibition after 72 hrs by MTT assay. Format: functional.
Experiment [1] deals with CDK9/cyclin T1 (Homo sapiens) (UniProt O60563+P50750). Nature of the experiment: Inhibition of CDK9/CyclinT1 (unknown origin) at 500 nM by ADP-Glo kinase assay relative to control. Format: protein-complex assay. In general terms: ADP-Glo first removes unused ATP, then detects ADP through luciferase.
The target of experiment [2] is CDK2/Cyclin A2 (Homo sapiens) (UniProt P24941+P20248). Nature of the experiment: Inhibition of human full length CDK2/CyclinA2 at 500 nM by ADP-Glo kinase assay relative to control. The experiment is classed as protein-complex assay.
In experiment [3] the test system is HCT-116. Nature of the experiment: Antiproliferative activity against human HCT-116 cells assessed as cell growth inhibition after 72 hrs by MTT assay. Format: functional.
In the next experiment the target is CDK2/Cyclin A2 (Homo sapiens, UniProt P24941). Format: protein-complex assay.
The target of a further experiment is CDK9/cyclin T1 (Homo sapiens, UniProt P50750).
Experiment [4] concerns HCT-116. Nature of the experiment: Induction of apoptosis in human HCT-116 cells assessed as late apoptotic cells at 10 nM measured after 48 hrs by Annexin V-FITC/PI assay (reference value: 6.06%). The experiment is classed as functional.
The subject of experiment [5] is HCT-116. Nature of the experiment: Cell cycle arrest in human HCT-116 cells assessed as accumulation of cells at […] phase at 10 nM measured after 48 hrs by flow cytometry (reference value: 6.39%). Format: functional. Background: In flow cytometry, cells or beads pass a laser one at a time.
For experiment [6], the system named is HCT-116. Nature of the experiment: Cell cycle arrest in human HCT-116 cells assessed as accumulation of cells at S phase at 10 nM measured after 48 hrs by flow cytometry (reference value: 31.43%). The experiment is classed as functional.
Experiment [7] has as its system HCT-116. Nature of the experiment: Induction of apoptosis in human HCT-116 cells assessed as viable cells at 10 nM measured after 48 hrs by Annexin V-FITC/PI assay (reference value: 88.5%). Format: functional. To be noted: read-out: Activity.
Experiment [8] has as its system HCT-116. In words: Induction of apoptosis in human HCT-116 cells assessed as necrotic cells at 10 nM measured after 48 hrs by Annexin V-FITC/PI assay (reference value: 2.31%). Format: functional.
Experiment [9] has as its system HCT-116. In words: Cell cycle arrest in human HCT-116 cells assessed as accumulation of cells at G0-G1 phase at 10 nM measured after 48 hrs by flow cytometry (reference value: 62.18%). Format: functional.
Experiment [10] concerns HCT-116. Nature of the experiment: Induction of apoptosis in human HCT-116 cells assessed as early apoptotic cells at 10 nM measured after 48 hrs by Annexin V-FITC/PI assay (reference value: 3.16%). Format: functional.

Broadly, the GI50 is the concentration giving 50% growth inhibition. The IC50 is the concentration that inhibits the measured activity by half. A high value points to weaker potency. Broadly, the inhibition is the relative decrease from the control value, in per cent. Read a low inhibition as little suppression.

Cholinesterase, sequence (P81908 whole entry): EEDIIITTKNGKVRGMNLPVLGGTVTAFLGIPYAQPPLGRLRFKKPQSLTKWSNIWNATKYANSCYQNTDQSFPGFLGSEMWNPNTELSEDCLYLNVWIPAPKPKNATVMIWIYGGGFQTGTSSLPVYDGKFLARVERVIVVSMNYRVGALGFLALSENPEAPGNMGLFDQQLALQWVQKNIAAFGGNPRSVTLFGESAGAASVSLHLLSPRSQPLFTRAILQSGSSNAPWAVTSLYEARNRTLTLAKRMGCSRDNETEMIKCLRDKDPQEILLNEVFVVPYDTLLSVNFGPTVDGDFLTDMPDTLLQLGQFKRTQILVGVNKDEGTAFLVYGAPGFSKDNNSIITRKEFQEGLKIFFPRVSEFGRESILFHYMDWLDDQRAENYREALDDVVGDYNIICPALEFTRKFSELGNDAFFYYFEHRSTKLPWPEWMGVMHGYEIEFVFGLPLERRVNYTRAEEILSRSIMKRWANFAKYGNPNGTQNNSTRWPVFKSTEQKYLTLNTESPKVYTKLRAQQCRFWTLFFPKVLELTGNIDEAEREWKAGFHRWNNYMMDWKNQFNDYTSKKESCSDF
Acetylcholinesterase, sequence (O42275 whole entry): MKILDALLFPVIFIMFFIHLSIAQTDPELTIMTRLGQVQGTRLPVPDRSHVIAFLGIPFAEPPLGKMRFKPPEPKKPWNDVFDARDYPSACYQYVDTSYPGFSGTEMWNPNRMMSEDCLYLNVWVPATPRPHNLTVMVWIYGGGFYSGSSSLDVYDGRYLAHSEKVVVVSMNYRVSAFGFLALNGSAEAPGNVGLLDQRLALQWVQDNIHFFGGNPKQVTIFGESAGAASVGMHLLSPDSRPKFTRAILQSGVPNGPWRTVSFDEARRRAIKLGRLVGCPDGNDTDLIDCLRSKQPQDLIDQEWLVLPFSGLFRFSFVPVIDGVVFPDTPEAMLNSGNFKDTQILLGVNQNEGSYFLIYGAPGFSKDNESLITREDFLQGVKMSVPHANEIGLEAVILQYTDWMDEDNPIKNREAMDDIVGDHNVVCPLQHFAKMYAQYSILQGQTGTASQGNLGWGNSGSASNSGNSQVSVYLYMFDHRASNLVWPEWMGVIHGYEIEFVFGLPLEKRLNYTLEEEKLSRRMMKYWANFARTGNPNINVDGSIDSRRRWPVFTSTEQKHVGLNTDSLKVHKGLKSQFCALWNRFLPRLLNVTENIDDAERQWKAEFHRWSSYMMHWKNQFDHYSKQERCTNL
CDK9/cyclin T1, sequence (O60563 whole entry): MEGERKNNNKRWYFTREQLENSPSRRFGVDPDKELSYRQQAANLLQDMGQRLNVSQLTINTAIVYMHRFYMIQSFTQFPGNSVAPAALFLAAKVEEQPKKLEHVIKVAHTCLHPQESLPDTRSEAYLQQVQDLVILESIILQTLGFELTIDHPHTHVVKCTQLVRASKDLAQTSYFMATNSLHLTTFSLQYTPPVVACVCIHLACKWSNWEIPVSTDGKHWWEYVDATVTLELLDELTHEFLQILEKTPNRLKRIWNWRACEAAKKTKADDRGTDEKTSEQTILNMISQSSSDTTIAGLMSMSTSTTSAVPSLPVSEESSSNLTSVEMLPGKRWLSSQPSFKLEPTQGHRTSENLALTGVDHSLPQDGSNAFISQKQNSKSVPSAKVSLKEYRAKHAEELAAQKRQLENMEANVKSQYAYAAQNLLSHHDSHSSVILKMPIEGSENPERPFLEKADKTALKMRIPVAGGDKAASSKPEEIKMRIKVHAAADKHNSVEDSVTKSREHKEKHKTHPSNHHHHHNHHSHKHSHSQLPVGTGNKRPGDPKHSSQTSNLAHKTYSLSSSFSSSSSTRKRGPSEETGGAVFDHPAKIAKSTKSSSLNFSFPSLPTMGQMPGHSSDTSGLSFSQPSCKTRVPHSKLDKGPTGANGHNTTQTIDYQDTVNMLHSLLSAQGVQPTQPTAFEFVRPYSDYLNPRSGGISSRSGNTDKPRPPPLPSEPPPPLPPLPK
CDK9/cyclin T1, sequence (P50750 whole entry): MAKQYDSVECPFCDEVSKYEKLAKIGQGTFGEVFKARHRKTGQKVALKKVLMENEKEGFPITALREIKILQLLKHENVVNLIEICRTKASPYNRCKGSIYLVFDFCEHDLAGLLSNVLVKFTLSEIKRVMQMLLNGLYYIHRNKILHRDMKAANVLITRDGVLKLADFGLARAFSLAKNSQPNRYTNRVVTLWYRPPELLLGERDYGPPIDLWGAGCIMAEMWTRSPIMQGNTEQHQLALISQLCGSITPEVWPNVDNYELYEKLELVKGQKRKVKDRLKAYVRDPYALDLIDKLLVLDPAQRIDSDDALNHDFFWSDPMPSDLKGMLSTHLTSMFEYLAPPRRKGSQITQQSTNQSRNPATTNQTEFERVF

With `N[C@H]1CCN(c2c3c(nc4ccc(-c5ccnc(Nc6ccc(S(=O)(=O)N7CCOCC7)cc6)c5)cc24)CCCCC3)C1`, the GI50 came out at 2.61 µM with A549, 3.68 µM with SW480, 3.18 µM in the experiment on MCF7 and 2.26 µM in the experiment on HCT-116 [3]. For the same compound, the IC50 worked out at 24.9 µM at Acetylcholinesterase and 1.82 µM against Cholinesterase. Further, the inhibition in experiment [1] was determined as 62.4%; in experiment [2] it was 89.5%.
As for `CS(=O)(=O)c1ccc(Nc2cc(-c3ccc4nc5c(c(N6CC[C@H](N)C6)c4c3)CCCCC5)ccn2)cc1`, the GI50 with A549 turned out to be 2.78 µM; in the experiment on SW480, 3.52 µM; in the experiment on MCF7 it was 3.16 µM; in the experiment with HCT-116 [3], 3.01 µM. Moreover, the values for the IC50 at Acetylcholinesterase and against Cholinesterase were 24.2 µM and 3.05 µM, respectively. Also, the results for the inhibition in experiment [1] and in [2] were 80.2% and 90.1%, respectively.
Regarding `N[C@H]1CCN(c2c3c(nc4ccc(-c5ccnc(Nc6cccc(S(=O)(=O)N7CCOCC7)c6)c5)cc24)CCCCC3)C1`, the GI50 with A549 was determined as 3.3 µM; in the experiment with SW480, 3.2 µM; with MCF7, 3.44 µM; in the experiment with HCT-116 [3], 2 µM. For the same compound, the half-inhibitory concentration (IC50) is 28.5 µM at Acetylcholinesterase, 1.98 µM at Cholinesterase and above 0.5 µM against CDK2/Cyclin A2. Further, the inhibition in experiment [1] is 57.5%.
For the compound `N[C@H]1CCN(c2c3c(nc4ccc(-c5ccnc(NC(=O)C6CC6)n5)cc24)-c2ccccc2CCC3)C1`, the GI50 was 9.47 µM in the experiment with A549, 9.53 µM in the experiment on SW480, 6.33 µM in the experiment with MCF7 and above 10 µM in the experiment on HCT-116 [3]. Moreover, the IC50 on Acetylcholinesterase is above 50 µM; against Cholinesterase, 12.7 µM; on CDK2/Cyclin A2 it was above 0.5 µM. The inhibition in experiment [1] amounted to 72.7%.
`CN1CCN(S(=O)(=O)c2ccc(Nc3cc(-c4ccc5nc6c(c(N7CC[C@H](N)C7)c5c4)CCCCC6)ccn3)cc2)CC1`: the GI50 turned out to be 3.21 µM in the experiment with A549, 3.23 µM in the experiment on SW480, 2.73 µM in the experiment on MCF7 and 2 µM with HCT-116 [3]. Further, the IC50 was 24.2 µM at Acetylcholinesterase and 4.38 µM against Cholinesterase. For the same compound, the inhibition turned out to be 57.2% in experiment [1] and 85% in experiment [2].
Take `N[C@H]1CCN(c2c3c(nc4ccc(-c5ccnc(Nc6ccc(S(=O)(=O)N7CCCC7)cc6)c5)cc24)CCCCC3)C1`: the GI50 was 2.69 µM in the experiment on A549, 3.52 µM in the experiment with SW480, 3.24 µM in the experiment with MCF7 and 6.02 µM with HCT-116 [3]. The IC50 against Acetylcholinesterase is above 50 µM; against Cholinesterase it was 4.96 µM; on CDK9/cyclin T1 it was above 0.5 µM. In addition, the inhibition in experiment [2] is 74.8%.
On to `CCc1cnn2c(NCc3ccc[n+]([O-])c3)cc(N3CCCC[C@H]3CCO)nc12` [DINACICLIB], for which the GI50 amounted to 0.006 µM in the experiment on A549, 0.008 µM with SW480, 0.012 µM in the experiment on MCF7 and 0.009 µM in the experiment with HCT-116 [3]. The Activity is listed as around 10.4% with HCT-116 [4]; 10.05% in the experiment with HCT-116 [5]; 44.93% with HCT-116 [6]; 1.14% in the experiment with HCT-116 [8]; 45.02% in the experiment with HCT-116 [9]; 33.2% in the experiment with HCT-116 [10]. In addition, the viability at 0.01 µM in the experiment on HCT-116 [7] came to 55.3%.
Consider `N[C@H]1CCN(c2c3c(nc4ccc(-c5ccnc(Nc6ccc(S(=O)(=O)N7CCNCC7)cc6)c5)cc24)CCCCC3)C1`, for which the GI50 is 7.53 µM in the experiment on A549, 7.8 µM in the experiment with SW480, 11.6 µM with MCF7 and 5.83 µM in the experiment on HCT-116 [3]. For the same compound, the IC50 against Acetylcholinesterase was 19.5 µM; against Cholinesterase, 2.82 µM; at CDK9/cyclin T1 it was above 0.5 µM. The compound also gave an inhibition in [2] of 84%.

(Values after ChEMBL document CHEMBL5352406 (Eur J Med Chem, 2022).)
